Data set [1] can be described thus: In vivo pharmacokinetics using female mice (serum concentration, HPLC). As to conditions: for clearance: read-out: CL (clearance) (converted); for Half-life: read-out: Half-life (converted); for Vd: read-out: Vd (volume of distribution). Here is the method: Female mice each weighing […] were divided into groups of 5 mice each. The mice were anesthetized with ether, catheterized in their femoral artery and vein, respectively, and administered with 0.5 mg/kg body weight of compounds 234 and 274, and 5 mg/kg body weight of compounds 388, 404 and 415, respectively, via intravenous injection. Alternatively, 15 mg/kg body weight of compound 274 and 10 mg/kg body weight of compound 234 were orally administered to the mice.
At 0, 5, 10, 15 and 30 minutes and 1, 2, 4, 6, 9 and 12 hours after the intravenous injection, or at 0, 10, 20 and 40 minutes and 1, 2, 4, 6, 9 and 12 hours after the oral administration, 0.3 ml blood samples were taken from the mice through femoral artery. The blood samples were kept on an ice bath for 30 minutes and centrifuged at 3,000 rpm for 10 minutes to obtain a supernatant (serum). The supernatant samples were stored at −20° C.
Standard solution: Compounds 234, 274, 388, 404 and 415 were respectively dissolved in methanol to a concentration of 1 mg/ml to obtain stock solutions. The stock solutions were diluted with methanol to obtain standard solutions having concentrations of 40, 20, 10, 2, 1, 0.5, 0.2, 0.05 and 0.02 μg/ml, respectively.
Standard calibration curve: A stand calibration curve was prepared by employing calibration concentrations of 0.002, 0.005, 0.02, 0.05, 0.1, 0.2, 1, 2 and 4 μg/ml.
10 μl each of the standard solutions prepared above was added to 100 μl of normal serum sample and diluted 10 times. 250 μl of acetonitrile was added to the resulting dilution and the mixture was centrifuged for 10 minutes to obtain a supernatant. 300 μl of the supernatant was dried by evaporation under a nitrogen atmosphere and reconstituted by adding 50 μl of methanol. 20 μl of the resulting solution was analyzed by HPLC to prepare a standard calibration curve. HPLC was performed with Shimadzu ODS2 column (4.6×250 mm, 5 μm by employing a mixture of methanol/water (90/10 (v/v)) as the mobile phase at a flow rate of 1.2 ml/min, and measuring the absorbance at 240 nm.
Extraction: 100 μl of the serum sample obtained in (4-2-1) was put into a 1 ml microtube and 10 μl of methanol was added thereto. 250 μl of acetonitrile was added to the microtube and the mixture was centrifuged for 10 minutes to obtain a supernatant. 300 μl of the supernatant was dried by evaporation under a nitrogen atmosphere and reconstituted by adding 50 μl of methanol. 20 μl of the resulting solution was analyzed by the HPLC method as above.
Average concentrations of the compounds in the serum samples were plotted in a semi-log scale against the time lapsed after the administration, and the pharmacokinetic parameters were determined as a non-compartment open model by employing WinNonlin® program (Pharsight Corporation).

Another data set concerns MG-63 cells. The experiment in a line: Cytotoxicity test against osteoblast (MTT). Format: cell-based, human. The procedure, abridged:
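MG-63 human osteosarcoma cells exposed to 0.1, 0.3, 1.0 and 3.0 μM compound in DMEM with 10% FBS. Osteoclast progenitors in the same text were run at 2, 4 and 8 μM, 48 h, α-MEM + 20 ng/ml M-CSF, 37 °C; MTT added 3 h before end, A550 as % of control.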

The subject of another data set is osteoclasts. The experiment in a line: Inhibitory effect on resorption activity of osteoclast (resorption pit area on calcium phosphate-coated plate). Format: cell-based, mice. As to conditions: compared to control. Here is the method: After finishing culture, the plate was washed with distilled water, and 50 μl/well of 5% sodium hypochlorite was added to the plate. The plate was let alone for 5 min, washed again with distilled water to remove the adherent cells, and dried at room temperature. Then, the area of formed resorption pits was calculated by means of Image Pro Plus software (Media Cybernetics Ver. 3.0).

Read-outs that look alike come from different tables or passages of the source.

With `CO/C=C(/C(=O)OC)c1ccccc1COc1cccc(N2CCCCC2)c1` [Compound No. 388, (E)-methyl-2-[2-((3-(piperidin-1-yl)phenoxy)methyl)phenyl]-3-methoxyacrylate], the “AUC (area under the curve of blood concentration versus time)” value in data set [1] (I.V.) is 112600 ± 13000 ng·h/mL. Besides, in data set [1] (mouse, serum, iv, I.V.), the clearance is 0.0483 mL/min, the Half-life is 7.3 ± 1.2 h and the distribution volume (Vd) was 0.0274 ± 0.002 L/kg. Also, the “relative absorbance (MTT) relative to control (set as 100)” value with MG-63 cells (0.33 μM compound) amounted to 105. The “relative absorbance (MTT) relative to control (set as 100)” value in the data set on MG-63 cells (1 μM compound) was 84. Moreover, the “relative absorbance (MTT) relative to control (set as 100)” value with MG-63 cells (3 μM compound) is 81.
Consider `CO/C=C(/C(=O)OC)c1ccc(Cl)cc1COc1ccc(OCCOC)cc1` [Compound No. 274, (E)-methyl-2-(2-((4-(2-methoxyethoxy)phenoxy)methyl)-4-chlorophenyl)-3-methoxyacrylate], for which the “Reduction (%) of the resorption pit area of osteoclasts” value in the data set on osteoclasts (0.3 uM), with osteoclasts (1 uM) and with osteoclasts (3 uM) was 100% each time. Besides, the figures for the “AUC (area under the curve of blood concentration versus time)” value in data set [1] (I.V.) and in data set [1] (Oral) were 47200 ± 25800 ng·h/mL and 80600 ± 45400 ng·h/mL, respectively. Further, the “CL (clearance)” value in data set [1] (Oral) came to 7.5 ± 3.4 mL/h. The “Vd (volume of distribution)” value in data set [1] (Oral) amounted to 0.0434 ± 0.0468 L/kg. The Half-life in data set [1] (mouse, serum, 15 mg/kg, Oral) is 4.2 ± 3.7 h; in data set [1] (mouse, serum, iv, I.V.), 3.5 ± 2.3 h. Moreover, the bioavailability in data set [1] (mouse, serum, 15 mg/kg, oral versus I.V., read-out: Bioavailability) turned out to be 8.5%. Moreover, the clearance in data set [1] (mouse, serum, iv, I.V.) is 0.238 mL/min. The Vd in data set [1] (mouse, serum, iv, I.V.) is 0.0503 ± 0.0098 L/kg. In addition, the “relative absorbance relative to that of the control (set as 100), MTT” value with MG-63 cells (0.11 uM) was found to be 113; with MG-63 cells (0.33 uM), 108; in the data set on MG-63 cells (1 uM) it was 106; in the data set on MG-63 cells (3 uM), 94.

The values are drawn from patent publication US7879835B2 (Korea Research Institute of Chemical Technology, priority 2004, dated 2011).
